Where two headings read alike, the source gives them in different places.
Experiments:
OCT2 [1] = target: T1, OCT2 (Homo sapiens, UniProt O15244); assay: Inhibition of OCT2-mediated oxaliplatin uptake in transfected MDCK-II cells (protein-free HBSS)
T1 sequence (O15244 1-555): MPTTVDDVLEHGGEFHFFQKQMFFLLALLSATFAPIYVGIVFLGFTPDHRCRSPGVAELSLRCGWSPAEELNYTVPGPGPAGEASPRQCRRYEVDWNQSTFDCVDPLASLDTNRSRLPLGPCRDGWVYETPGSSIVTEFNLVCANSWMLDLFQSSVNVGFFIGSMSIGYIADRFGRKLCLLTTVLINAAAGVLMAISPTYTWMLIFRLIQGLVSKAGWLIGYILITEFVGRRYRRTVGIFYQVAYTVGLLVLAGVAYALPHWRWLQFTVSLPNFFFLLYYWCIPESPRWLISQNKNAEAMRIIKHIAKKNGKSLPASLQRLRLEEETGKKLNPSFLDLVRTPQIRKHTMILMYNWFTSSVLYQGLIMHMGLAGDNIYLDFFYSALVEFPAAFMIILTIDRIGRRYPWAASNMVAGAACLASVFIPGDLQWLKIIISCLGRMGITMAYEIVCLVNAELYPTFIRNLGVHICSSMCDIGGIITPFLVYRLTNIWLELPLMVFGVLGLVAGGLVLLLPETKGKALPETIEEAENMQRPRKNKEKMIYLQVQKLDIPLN
Description: Fully confluent MDCK cell monolayers were transfected with either cDNA plasmids encoding the human transporter to be tested or a GFP control. […] The cells were then washed with ice-cold PBS and lysed with 50:50 acetonitrile:H2O. Intracellular content of the substrate was quantified by LC/MS/MS or a MicroBeta radiometric plate reader.

[2] = tested on: cells co-expressing OCT2 and MATE1; assay: Intracellular oxaliplatin content in cells co-expressing OCT2 and MATE1; type: cell-based; conditions: oxaliplatin 100 μM in 4% BSA HBSS, 90 min
Description: In most naturally occurring cells, uptake transporters co-exist with efflux transporters. It is the interplay between the uptake and efflux transporters that determines the net intracellular accumulation of a substrate. One example is in the proximal tubule epithelial cells in the kidney, where the basolaterally expressed transporters, mainly OCT2, work in concert with the apically expressed MATE1 and MATE2K [5]. […] Cells with single expression of OCT2 or GFP mock were also used as a control.

HT-29 cells = assay: Anti-proliferation study (SRB assay) in HT-29 cells; conditions: co-treatment; FIG. 11
Procedure: (§1) The potency was determined by the sulforhodamine B (SRB) assay in 96-well plates. […] Seeding density was 3000 cells/well for both cell lines.

OCT2 [3] = target: T1, OCT2; assay: Inhibition of OCT2-mediated oxaliplatin transport in 100% human serum or HBSS containing 4% BSA (IC50,app); conditions: for transporter preference in inhibiting oxaliplatin transport: serum or 4% BSA
[4] = tested on: MDCK cells expressing OCT2, MATE1 and MATE2K; assay: LDH cytotoxicity of oxaliplatin in MDCK-II triple-transporter model; conditions: for effect on oxaliplatin induced cytotoxicity in OCT2 expressing cells: buflomedil 3 and 6 μM, dolutegravir 10 μM, erlotinib 6 μM, cimetidine 6 μM, FIG. 6
Procedure: A triple-transporter model for OCT2(SLC22A2), MATE1(SLC47A1), and MATE2-K(SLC47A2) was created by transfecting fully confluent MDCK-II cell monolayers with DNA mixture containing the plasmids encoding OCT2, MATE1, and MATE-2K at concentrations of 40, 15, and 5 ng/μl, respectively. The OCT2 was expressed on the basolateral cell membrane, and MATE1 and MATE2-K were expressed on the apical side of the cells. […] The apical medium was adjusted to pH 6.7 with 25 mM of 2-(N-morpholino) ethanesulfonic acid (MES).
After removal of the media, a drug-free medium was added in both sides. After incubation 24 hours, the medium was collected, and the lactate dehydrogenase (LDH) activity in the medium was measured using an LDH cytotoxicity assay kit (G-Biosciences. St. Louis, Mo.; or Biochain, Newark, Calif.), according to the manufacturers' instructions. Cytotoxicity was evaluated by measuring the LDH activity in the medium.
Cytotoxicity was tested using the same procedure described above.

[5] = cited from earlier work; for Plasma protein binding (%): published data
[6] = Published clinical pharmacokinetic data; conditions: from published Cmax and protein binding
[7] = tested on: Balb/c mice exposed to chronic treatment with Oxaliplatin; assay: Dynamic Plantar Aesthesiometer Test in chronic oxaliplatin neuropathy model; type: in vivo, mouse; conditions: OXA 3.5 mg/kg iv, 8 cycles ± BFMD 30 mg/kg ip + 15 mg/kg iv
Procedure: The Dynamic Plantar Aesthesiometer Test was used to determine the alterations in mechanical pain perception and their changes due to pharmacological treatment. Mice were accustomed to the device 3 days before performing the tests after a 1 hour acclimatization period followed by testing. The mechanical nociceptive threshold was assessed using a Dynamic Aesthesiometer Test (model 37450, Ugo Basile Biological Instruments, Comerio. Italy), which generated a linearly increasing mechanical force. At each time point, after the acclimatization period, a servo-controlled mechanical stimulus (a pointed metallic filament, 0.5-mm diameter) was applied to the plantar surface of the hind paw, which exerted a progressively increasing punctuate pressure, reaching up to 15 g within 15 seconds. The pressure evoking a clear voluntary hind-paw withdrawal response was recorded automatically and taken as representing the mechanical nociceptive threshold index. The mechanical threshold was always assessed alternatively on each side every 2 minutes on 3 occasions to yield a mean value. The results represent the maximal pressure (expressed in grams) tolerated by the animals. There was an upper limit cutoff of 30 seconds, after which the mechanical stimulus was automatically terminated.

[8] = tested on: Balb/c mice exposed to chronic treatment with Oxaliplatin; assay: Cold Plate Test in chronic oxaliplatin neuropathy model; type: in vivo, mouse; conditions: OXA 3.5 mg/kg iv ± BFMD 30 mg/kg ip + 15 mg/kg iv
Procedure: Cold Plate Test was used to determine the alterations in cold temperature related pain perception and their changes due to pharmacological treatment. Cold Plate Test was performed by using an apparatus (35100—Hot/Cold Plate. Ugo Basile instruments) composed by a Plexiglas cylinder and a thermostatic plate, able to reach variable temperatures. The mice were placed on the plate set at +4° C., free to move and walk. Two blinded experimenters simultaneously determine the number of pain signs (e.g. jumping, licking, etc.) in a trial of 5 minutes.

[9] = cited from earlier work
[10] = tested on: Balb/c mice exposed to chronic treatment with Oxaliplatin; assay: Caudal nerve conduction study in chronic oxaliplatin neuropathy model; type: in vivo, mouse; conditions: OXA 3.5 mg/kg iv, 8 cycles ± BFMD 30 mg/kg ip + 15 mg/kg iv
Procedure: The development of peripheral neuropathy after chronic administration of drugs was assessed by evaluating the nerve conduction velocity (NCV) along caudal and digital nerve using an electromyography apparatus (Myto2 ABN Neuro, Firenze, Italy). Caudal NCV was determined by placing a couple of recording needle electrodes at the base of the tail and a couple of stimulating needle electrodes 3.5 cm distally to the recording points. Similarly, the digital NCV was determined by placing the recording electrodes close to the ankle bone and the stimulating electrodes close to the fourth toe near the digital nerve. The intensity, duration and frequency of stimulation were set up in order to obtain optimal results. All the neurophysiological determinations were performed under standard conditions in a temperature-controlled room (22+/−2° C.) and the animal under isoflurane anesthesia along the whole procedure with continuous monitoring of vital signs.

[11] = Plasma levels of buflomedil and oxaliplatin in the chronic model; type: in vivo, mouse; conditions: 15 minutes after the 8th cycle
Procedure: At baseline (before drug treatment) and at the end of treatment, caudal nerve conduction study (NCS), behavioral tests (Dynamic and Cold Plate), histopathology study were performed. Serum samples were collected at the end of treatment.

[12] = tested on: Balb/c mice exposed to chronic treatment with Oxaliplatin; assay: Morphometry and histopathology of DRG neurons in chronic oxaliplatin neuropathy model; type: in vivo, mouse
Description: The investigator was blind to the nerve and DRG conditions for these analyses. Three animals from each group were sacrificed four days after the last oxaliplatin dose. The left sciatic nerves and the L4-L5 DRGs were harvested and processed following previously reported protocols, resin embedded and sectioned for light and electron microscope analysis. For the light microscopy analysis, 1 μm semithin sections were stained with toluidine blue and examined using a Nikon Eclipse E200 light microscope (Nikon, Firenze, Italy). For the electron microscopy analysis, ultrathin sections (80 nm) counterstained with uranyl acetate and lead citrate, were examined with a Philips CM 10 transmission electron microscope (Philips, Eindhoven, Netherlands).
The investigator was blind to the experimental conditions of the tissue for these experiments. One micron thick semithin sections stained with toluidine blue were used for morphometric examination of the DRGs from control (n=3) and oxaliplatin-treated mice (n=3). (Renn et al. Molecular Pain 2011, 7:29). Only the cells where the nucleolus was included in the section plane of 50 μm-spaced out sections were considered to avoid the overlapping of the same cell bodies and they were analyzed with computer-assisted image analysis (ImageJ, NIH) to measure the soma and nucleolus size of at least 300 DRG neurons per mouse.

OCT2 [13] = target: T1, OCT2; assay: Inhibition of OCT2-mediated metformin uptake in transfected MDCK-II cells
HepG2 cells = assay: Anti-proliferation study (SRB assay) in HepG2 cells; conditions: FIG. 10
Procedure: as §1

[14] = human, in vivo
OCT2 [15] = target: T1, OCT2; conditions: OCT2-mediated uptake; ASP+ 5 μM in HBSS; from Kido Y et al. J Med Chem 2011; cited from earlier work
OCT2 [16] = target: T1, OCT2; assay: Inhibition of OCT2-mediated ASP+ uptake (Kido et al., Giacomini group); conditions: human, cell line expressing human OCT2 (cell line not given), probe ASP+ 5 μM
[17] = human, MDCK-II cells transfected with human OCT2, probe oxaliplatin 10 μM

Q: With C#Cc1cccc(Nc2ncnc3cc(OCCOC)c(OCCOC)cc23)c1 [Erlotinib] as the compound, how does the inhibition at 30 min, 5 μM (OCT2 [1]; [17]) read?
A: The inhibition at 30 min, 5 μM was 93%.

Q: And the inhibition at 30 min, 50 μM (OCT2 [1]; [17])?
A: Its inhibition at 30 min, 50 μM is 106%.

Q: What about the “cellular accumulation of oxaliplatin in cells co-expressing OCT2 and MATE1” value [2] of the same compound?
A: Its value is “reduced cellular accumulation of oxaliplatin”.

Q: And the “effect on cisplatin anti-proliferation potency in HT-29” value (HT-29 cells)?
A: Its value is “ignorable impact on cisplatin cytotoxicity”.

Q: And the “transporter preference in inhibiting oxaliplatin transport” value (OCT2 [3])?
A: Its value is “potent in suppressing OCT1 as well as OCT2”.

Q: And the “cytotoxicity of the inhibitor itself” value ([4]; 6 μM, without oxaliplatin, FIG. 6B)?
A: The value was “showed cytotoxicity itself without adding oxaliplatin”.

Q: And the “effect on oxaliplatin induced cytotoxicity in OCT2 expressing cells” value [4]?
A: The value was “its EC50 value could not be obtained due to an ambiguous fitting”.

Q: What about the “Mean Cmax” value ([5]; 150 mg po, day 24) of the same compound?
A: The value was 2120 ng/mL.

Q: And the “Mean T1/2” value ([5]; 150 mg po, day 24)?
A: Its value is 18.2 h.

Q: And the “Mean Cmax” value ([5]; 150 mg po, single dose)?
A: The value was 1140 ng/mL.

Q: What about the “Mean T1/2” value ([5]; 150 mg po, single dose) of the same compound?
A: Its value is 20 h.

Q: And the “Plasma protein binding (%)” value [5]?
A: Its value is 93%.

Q: And the Cmax ([5]; read-out: Mean Cmax, 150 mg po, day 24)?
A: Its Cmax is 5.4 µM.

Q: And the Cmax ([5]; read-out: Mean Cmax, 150 mg po, single dose)?
A: Its Cmax is 2.9 µM.

Q: And the Cmax ([5]; read-out: Plasma peak total concentration Cmax, published clinical pharmacokinetic data)?
A: The Cmax was 5.4 µM.

Q: What about the “Plasma peak unbound concentration Cmax,u” value [6] of the same compound?
A: The value was 0.38 µM.

Q: Which results are given for O=C(O)C(=O)O.[NH-][C@@H]1CCCC[C@H]1[NH-].[Pt+2] [Oxaliplatin]?
A: mechanical allodynia, Dynamic Aesthesiometer Test at the end of treatment [7]: development of mechanical allodynia with a reduction in the latency until withdrawal; Cold Plate Test pain signs after third injection ([8]; 3 cycles): significant increase in pain signs versus CTRL and all groups of treatment; Cold Plate Test pain signs at the end of treatment (eight injections) ([8]; 8 cycles): significant increase in pain signs versus CTRL and BFMD; patients with severe PN (Grade 3 or higher) ([9]; cumulative doses 510-765 mg/m^2): up to 10%; patients developing severe PN ([9]; cumulative doses above 1000 mg/m^2, Argriou 2012): approximately 50%; caudal nerve action potential amplitude [10]: significant decrease in caudal amplitude; caudal nerve conduction velocity [10]: significant reduction in caudal nerve conduction velocity vs. control mice; pharmacokinetic interaction between BFMD and OXA (plasma levels) [11]: unaffected by the presence of BFMD; area of DRG neuron cell bodies and nucleoli (morphometry) ([12]; OXA 3.5 mg/kg iv twice a week for 4 weeks (8 cycles) ± BFMD 30 mg/kg ip + 15 mg/kg iv): significant decrease in the area; DRG histopathology (light and electron microscopy) ([12]; OXA 3.5 mg/kg iv, 8 cycles ± BFMD 30 mg/kg ip + 15 mg/kg iv): high incidence of multinucleolated cell bodies with eccentric nucleoli

Q: With CN/C(=N/CCSCc1nc[nH]c1C)NC#N [Cimetidine] as the compound, how does the IC50 (OCT2 [1]) read?
A: The IC50 was 9.71 µM.

Q: What about the inhibition at 30 min, 5 μM (OCT2 [1]; human) of the same compound?
A: Its inhibition at 30 min, 5 μM is 34%.

Q: What about the inhibition at 30 min, 50 μM (OCT2 [1]; human) of the same compound?
A: Its inhibition at 30 min, 50 μM is 83%.

Q: And the potency estimated from few doses at 30 min (OCT2 [1]; human, IC50 (μM) (substrate Oxaliplatin))?
A: The potency estimated from few doses at 30 min was 9.7 µM.

Q: And the IC50 (OCT2 [13])?
A: Its IC50 is 57.6 ± 6.9 µM.

Q: What about the IC50 (OCT2 [3]; IC50,app (μM), apparent inhibition constant in 100% human serum or HBSS containing 4% BSA, OCT2-mediated oxaliplatin uptake) of the same compound?
A: The IC50 was 36.8 µM.

Q: And the IC50 (OCT2 [3]; OCT2 IC50, app (μM), 100% human serum or HBSS containing 4% BSA, 20 μM or 100 μM oxaliplatin)?
A: Its IC50 is 36.8 ± 13.6 µM.

Q: What about the “transporter preference in inhibiting oxaliplatin transport” value (OCT2 [3]) of the same compound?
A: Its value is “even more preference towards inhibiting oxaliplatin transport through MATE1”.

Q: And the “effect on oxaliplatin induced cytotoxicity in OCT2 expressing cells” value [4]?
A: Its value is “did not reduce oxaliplatin cytotoxicity”.

Q: What about the “effect on anti-tumor potency of oxaliplatin in HepG2” value (HepG2 cells) of the same compound?
A: Its value is “nor cimetidine”.

Q: And the “Plasma protein binding (%)” value [5]?
A: Its value is 20%.

Q: What about the “Plasma peak unbound concentration Cmax,u” value [14] of the same compound?
A: The value was 9.60 µM.

Q: What about the “Inhibition % @ 20 μM (substrate ASP+)” value (OCT2 [15]) of the same compound?
A: Its value is 43%.

Q: What about the potency estimated from few doses (OCT2 [16]) of the same compound?
A: The potency estimated from few doses was 26.4 µM.
